# Legend:
# Assay type in all cases: physicochemical
# [1] = Reaction of zincon with metal ions (colour change): Mg2+; settings: solution with Mg^2+
# Text: (§1) Certain dyes used to detect zinc ions also react with other metal ions. For example, Eriochrome Black T reacts with Mg^2+ and Ca^2+ ions, which are commonly encountered in biological tissues. Sources of calcium ions are frequently included in oral care compositions.
# [2] = Reaction of zincon with metal ions (colour change): Ca2+; settings: solution with Ca^2+
# Text: as §1
# [3] = Reaction of zincon with metal ions (colour change): Fe2+; settings: solution with Fe^2+
# Text: as §1
# [4] = Reaction of zincon with metal ions (colour change): Co2+; settings: solution with Co^2+
# Text: as §1
# [5] = Reaction of zincon with metal ions (colour change): Cu2+; settings: solution with Cu^2+
# Text: as §1
# [6] = Reaction of zincon with metal ions (colour change): Zn2+; settings: solution with Zn^2+
# Text: as §1
# [7] = Absorbance of zincon as function of pH (detection of zinc)
# Text: It has been reported in the literature that the working pH range for zincon is pH 8.5 to 9.5 (Yoe and Rush, 1952. “A new colorimetric reagent for zinc”, Analytica Chimica Acta, vol. 6, pp 526 to 527).
smiles,measurement,setting,value
"O=C(O)c1ccccc1N=NC(=NNc1cc(S(=O)(=O)[O-])ccc1O)c1ccccc1.[Na+] [zincon, o-[α-(2-hydroxy-5-sulfophenylazo)-benzylidene hydrazino]benzoic acid]",colour change of zincon,[1],did not undergo a colour change
same,colour change of zincon,[2],did not undergo a colour change
same,colour change of zincon,[3],green solution
same,colour change of zincon,[4],sky blue solution
same,colour change of zincon,[5],difficult to distinguish from that of Zn^2+
same,colour change of zincon,[6],deep blue complex
same,Absorbance of sample at 610 nm,[7]; pH 7.0,0.233
same,Absorbance of sample at 610 nm,[7]; pH 7.5,0.232
same,Absorbance of sample at 610 nm,[7]; pH 8.0,0.245
same,Absorbance of sample at 610 nm,[7]; pH 8.5,0.251
same,Absorbance of sample at 610 nm,[7]; pH 9.5,0.252

# From patent publication US9625449B2, “Determining the bioavailability of zinc (II) ions” (Colgate-Palmolive Company, priority 2014, dated 2017)
